From patent US20120122820A1, “PRODRUGS AND THE USE THEREOF” (Bayer Schering Pharma Aktiengesellschaft, priority 2007, published 2012)
Values after ≈ are worked out from the molar mass of the structure shown. Counter-ions that a name gives are not always drawn.

Columns and labels:
[1] = Determination of the solubility (24 h shaking at room temperature, ultracentrifugation, HPLC); format: physicochemical; settings: thermodynamic from solid
Method: The test substance is suspended in water or dilute hydrochloric acid (pH 4) [Examples 1-21] or in 5% strength aqueous dextrose solution [Examples 22-40]. This suspension is shaken at room temperature for 24 h. After ultracentrifugation at 224 000 g for 30 min, the supernatant is diluted with DMSO and analyzed by HPLC. A two-point calibration plot of the test compound in DMSO is used for quantification.
Agilent 1100 with DAD (G1315A), quat. pump (G1311A), autosampler CTC HTS PAL, degasser (G1322A) and column thermostat (G1316A); column: Phenomenex Gemini C18, 5 μm, 50 mm×2 mm; temperature: 40° C.; eluent A: water/phosphoric acid pH 2, eluent B: acetonitrile; flow rate: 0.7 ml/min; gradient: 0-0.5 min 85% A, 15% B; ramp 0.5-3 min 10% A, 90% B; 3-3.5 min 10% A, 90% B; ramp 3.5-4 min 85% A, 15% B; 4-5 min 85% A, 15% B.
Agilent 1100 with DAD (G1315A), quat. pump (G1311A), autosampler CTC HTS PAL, degasser (G1322A) and column thermostat (G1316A); column: VDSoptilab Kromasil 100 C18, 3.5 μm, 60 mm×2.1 mm; temperature: 30° C.; eluent A: water+5 ml of perchloric acid/liter, eluent B: acetonitrile; flow rate: 0.75 ml/min; gradient: 0-0.5 min 98% A, 2% B; ramp 0.5-4.5 min 10% A, 90% B; 4.5-6 min 10% A, 90% B; ramp 6.5-6.7 min 98% A, 2% B; 6.7-7.5 min 98% A, 2% B.

[2] = Stability in buffer at various pH values; format: physicochemical
Method: 0.3 mg of the test substance is weighed into a 2 ml HPLC vial and 0.5 ml of acetonitrile or acetonitrile/DMSO (9:1) is added. The substance is dissolved by putting the sample vessel in an ultrasonic bath for about 10 seconds. Then 0.5 ml of the respective (buffer) solution is added, and the sample is again treated in the ultrasonic bath.
• pH 4: 1 liter of Millipore water is adjusted to pH 4.0 with 1 N hydrochloric acid; • pH 5: 0.096 mol of citric acid and 0.2 mol of sodium hydroxide ad 1 liter of water; • pH 7.4: 90.0 g of sodium chloride, 13.61 g of potassium dihydrogen phosphate and 83.35 g of 1 N sodium hydroxide solution are made up to 1 liter with water; this solution is then further diluted 1:10 with Millipore water. • pH 8: 0.013 mol of borax and 0.021 mol of hydrochloric acid ad 1 liter of water.
5 μl portions of the sample solution are analyzed by HPLC for their content of unchanged test substance, and of parent substance (A) produced, every hour over a period of 24 hours at 37° C. The percentage areas of the appropriate peaks are used for quantification.
HPLC method for Examples 1-21:
Agilent 1100 with DAD (G1314A), binary pump (G1312A), autosampler (G1329A), column oven (G1316A), thermostat (G1330A); column: Kromasil 100 C18, 60 mm×2.1 mm, 3.5 μm; column temperature: 30° C.; eluent A: water+5 ml of perchloric acid/liter, eluent B: acetonitrile; gradient: 0-1.0 min 98% A, 2% B; 1.0-9.0 min 2% A, 98% B; 9.0-13.0 min 2% A, 98% B; 13.0-13.5 min 98% A, 2% B; 13.5-15.0 min 98% A, 2% B; flow rate: 0.75 ml/min; UV detection: 210 nm.
HPLC method for Examples 22-40:
The ratios of the peak areas (F) at the respective time points in relation to the peak areas at the starting time are shown in Table 3 for representative exemplary embodiments: […]

[3] = aqueous buffer, dilute hydrochloric acid (pH 4)
[4] = saline or isotonic, 5% strength aqueous dextrose solution

## N#Cc1c(N)nc(SCc2csc(-c3ccc(Cl)cc3)n2)c(C#N)c1-c1ccc(OCCOC(=O)CN)cc1 [Example 6, 2-{4-[2-Amino-6-({[2-(4-chlorophenyl)-1,3-thiazol-4-yl]methyl}thio)-3,5-dicyanopyridin-4-yl]-phenoxy}ethyl glycinate dihydrochloride]
[1]; [3]
  solubility at 24 h: 90 µg/mL

## N#Cc1c(N)nc(SCc2csc(-c3ccc(Cl)cc3)n2)c(C#N)c1-c1ccc(OCCOC(=O)[C@@H]2CCCN2)cc1 [Example 9, 2-{4-[2-Amino-6-({[2-(4-chlorophenyl)-1,3-thiazol-4-yl]methyl}thio)-3,5-dicyanopyridin-4-yl]-phenoxy}ethyl L-prolinate hydrochloride]
[1]; [3]
  solubility at 24 h: 50 µg/mL

## Cc1ccc(S(=O)(=O)[O-])cc1.N#Cc1c(N)nc(SCc2csc(-c3ccc(Cl)cc3)n2)c(C#N)c1-c1ccc(OCCOC(=O)[C@@H]2CCC[NH2+]2)cc1 [Example 10, 2-{4-[2-Amino-6-({[2-(4-chlorophenyl)-1,3-thiazol-4-yl]methyl}thio)-3,5-dicyanopyridin-4-yl]-phenoxy}ethyl L-prolinate p-toluenesulfonic acid salt]
[1]; [3]
  solubility at 24 h: 8 µg/mL

## N#Cc1c(N)nc(SCc2csc(-c3ccc(Cl)cc3)n2)c(C#N)c1-c1ccc(OCCOC(=O)[C@@H](N)CO)cc1 [Example 11, 2-{4-[2-Amino-6-({[2-(4-chlorophenyl)-1,3-thiazol-4-yl]methyl}thio)-3,5-dicyanopyridin-4-yl]-phenoxy}ethyl L-serinate hydrochloride]
[1]; [3]
  solubility at 24 h: 70 µg/mL

## N#Cc1c(N)nc(SCc2csc(-c3ccc(Cl)cc3)n2)c(C#N)c1-c1ccc(OCCOC(=O)[C@@H](N)CCCCN)cc1 [Example 14, 2-{4-[2-Amino-6-({[2-(4-chlorophenyl)-1,3-thiazol-4-yl]methyl}thio)-3,5-dicyanopyridin-4-yl]-phenoxy}ethyl L-lysinate dihydrochloride]
[2]; pH 4, 37° C.
  % test substance after 4 h [F(t = 4 h) × 100/F(t = 0 h)]: 100%
  % test substance after 24 h [F(t = 24 h) × 100/F(t = 0 h)]: 100%
[2]; pH 8, 37° C.
  % test substance after 4 h [F(t = 4 h) × 100/F(t = 0 h)]: 96%
  % test substance after 24 h [F(t = 24 h) × 100/F(t = 0 h)]: 76%

## N#Cc1c(N)nc(SCc2csc(-c3ccc(Cl)cc3)n2)c(C#N)c1-c1ccc(OCCOC(=O)[C@@H](N)Cc2ccccc2)cc1 [Example 16, 2-{4-[2-Amino-6-({[2-(4-chlorophenyl)-1,3-thiazol-4-yl]methyl}thio)-3,5-dicyanopyridin-4-yl]-phenoxy}ethyl L-phenylalaninate hydrochloride]
[2]; pH 4, 37° C.
  % test substance after 4 h [F(t = 4 h) × 100/F(t = 0 h)]: 100%
  % test substance after 24 h [F(t = 24 h) × 100/F(t = 0 h)]: 100%
[2]; pH 8, 37° C.
  % test substance after 4 h [F(t = 4 h) × 100/F(t = 0 h)]: 100%
  % test substance after 24 h [F(t = 24 h) × 100/F(t = 0 h)]: 100%

## CS(=O)(=O)O.N#Cc1c(N)nc(SCc2csc(-c3ccc(Cl)cc3)n2)c(C#N)c1-c1ccc(OCCOC(=O)[C@@H](N)Cc2ccccc2)cc1 [Example 18, 2-{4-[2-Amino-6-({[2-(4-chlorophenyl)-1,3-thiazol-4-yl]methyl}thio)-3,5-dicyanopyridin-4-yl]-phenoxy}ethyl L-phenylalaninate methanesulfonic acid salt]
[1]; [3]
  solubility at 24 h: 60 µg/mL

## CC(C)[C@H](N)C(=O)OCCOc1ccc(-c2c(C#N)c(N)nc(SCc3csc(-c4ccc(Cl)cc4)n3)c2C#N)cc1 [Example 23, 2-{4-[2-Amino-6-({[2-(4-chlorophenyl)-1,3-thiazol-4-yl]methyl}thio)-3,5-dicyanopyridin-4-yl]-phenoxy}ethyl L-valinate dihydrochloride]
[2]; pH 4, 37° C.
  % test substance after 4 h [F(t = 4 h) × 100/F(t = 0 h)]: 100%
  % test substance after 24 h [F(t = 24 h) × 100/F(t = 0 h)]: 99%
[2]; pH 7.4, 37° C.
  % test substance after 4 h [F(t = 4 h) × 100/F(t = 0 h)]: 100%
  % test substance after 24 h [F(t = 24 h) × 100/F(t = 0 h)]: 96%

## N#Cc1c(N)nc(SCc2csc(-c3ccc(Cl)cc3)n2)c(C#N)c1-c1ccc(OCCOC(=O)[C@@H](N)CCN)cc1 [Example 24, 2-{4-[2-Amino-6-({[2-(4-chlorophenyl)-1,3-thiazol-4-yl]methyl}thio)-3,5-dicyanopyridin-4-yl]-phenoxy}ethyl (2S)-2,4-diaminobutanoate dihydrochloride]
[2]; pH 4, 37° C.
  % test substance after 4 h [F(t = 4 h) × 100/F(t = 0 h)]: 100%
  % test substance after 24 h [F(t = 24 h) × 100/F(t = 0 h)]: 99%
[2]; pH 5, 37° C.
  % test substance after 4 h [F(t = 4 h) × 100/F(t = 0 h)]: 96%
  % test substance after 24 h [F(t = 24 h) × 100/F(t = 0 h)]: 74%
[1]; [4]
  solubility at 24 h: > 500 µg/mL

## N#Cc1c(NC(=O)CCCN)nc(SCc2csc(-c3ccc(Cl)cc3)n2)c(C#N)c1-c1ccc(OCCOC(=O)CCCN)cc1 [Example 25, 2-(4-{2-[(4-Aminobutanoyl)amino]-6-({[2-(4-chlorophenyl)-1,3-thiazol-4-yl]methyl}thio)-3,5-di-cyanopyridin-4-yl}phenoxy)ethyl 4-aminobutanoate dihydrochloride]
[2]; pH 4, 37° C.
  % test substance after 4 h [F(t = 4 h) × 100/F(t = 0 h)]: 100%
  % test substance after 24 h [F(t = 24 h) × 100/F(t = 0 h)]: 100%
[2]; pH 7.4, 37° C.
  % test substance after 4 h [F(t = 4 h) × 100/F(t = 0 h)]: 41%
  % test substance after 24 h [F(t = 24 h) × 100/F(t = 0 h)]: 4%
[1]; [4]
  solubility at 24 h: 730 µg/mL

## N#Cc1c(N)nc(SCc2csc(-c3ccc(Cl)cc3)n2)c(C#N)c1-c1ccc(OCCOC(=O)CCC(=O)O)cc1 [Example 28, 2-Hydroxy-N,N,N-trimethylethanaminium 4-(2-{4-[2-amino-6-({[2-(4-chlorophenyl)-1,3-thiazol-4-yl]methyl}thio)-3,5-dicyanopyridin-4-yl]phenoxy}ethoxy) 4-oxobutanoate]
[2]; pH 4, 37° C.
  % test substance after 4 h [F(t = 4 h) × 100/F(t = 0 h)]: 100%
  % test substance after 24 h [F(t = 24 h) × 100/F(t = 0 h)]: 100%
[2]; pH 7.4, 37° C.
  % test substance after 4 h [F(t = 4 h) × 100/F(t = 0 h)]: 100%
  % test substance after 24 h [F(t = 24 h) × 100/F(t = 0 h)]: 100%

## N#Cc1c(N)nc(SCc2csc(-c3ccc(Cl)cc3)n2)c(C#N)c1-c1ccc(OCCOC(=O)/C=C\C(=O)O)cc1 [Example 31, 2-Hydroxy-N,N,N-trimethylethanaminium (2Z)-4-(2-{4-[2-amino-6-({[2-(4-chlorophenyl)-1,3-thiazol-4-yl]methyl}thio)-3,5-dicyanopyridin-4-yl]phenoxy}ethoxy)-4-oxobut-2-enoate]
[1]; [4]
  solubility at 24 h: 4 µg/mL (≈ 6.47 µM)

## N#Cc1c(N)nc(SCc2csc(-c3ccc(Cl)cc3)n2)c(C#N)c1-c1ccc(OCCOC(=O)[C@@H](N)Cc2c[nH]cn2)cc1 [Example 33, 2-{4-[2-Amino-6-({[2-(4-chlorophenyl)-1,3-thiazol-4-yl]methyl}thio)-3,5-dicyanopyridin-4-yl]-phenoxy}ethyl L-histidinate dihydrochloride]
[1]; [4]
  solubility at 24 h: 195 µg/mL

## CN(C)CC(=O)Nc1nc(SCc2csc(-c3ccc(Cl)cc3)n2)c(C#N)c(-c2ccc(OCCOC(=O)CN(C)C)cc2)c1C#N [Example 34, 2-(4-{2-({[2-(4-Chlorophenyl)-1,3-thiazol-4-yl]methyl}thio)-3,5-dicyano-6-[(N,N-dimethylglycyl)-amino]pyridin-4-yl}phenoxy)ethyl N,N-dimethylglycinate]
[2]; pH 4, 37° C.
  % test substance after 4 h [F(t = 4 h) × 100/F(t = 0 h)]: 100%
  % test substance after 24 h [F(t = 24 h) × 100/F(t = 0 h)]: 97%
[2]; pH 7.4, 37° C.
  % test substance after 4 h [F(t = 4 h) × 100/F(t = 0 h)]: 100%
  % test substance after 24 h [F(t = 24 h) × 100/F(t = 0 h)]: 97%

## CN(C)CC(=O)Nc1nc(SCc2csc(-c3ccc(Cl)cc3)n2)c(C#N)c(-c2ccc(OCCOC(=O)CN(C)C)cc2)c1C#N [Example 35, 2-(4-{2-({[2-(4-Chlorophenyl)-1,3-thiazol-4-yl]methyl}thio)-3,5-dicyano-6-[(N,N-dimethylglycyl)-amino]pyridin-4-yl}phenoxy)ethyl N,N-dimethylglycinate dihydrochloride]
[2]; pH 4, 37° C., dihydrochloride
  % test substance after 24 h [F(t = 24 h) × 100/F(t = 0 h)]: 100%
[2]; pH 7.4, 37° C., dihydrochloride
  % test substance after 24 h [F(t = 24 h) × 100/F(t = 0 h)]: 98%
